The source of these data is US20180092923A1, “METHODS FOR TREATING LYSOSOMAL STORAGE DISORDERS” (BIOMARIN PHARMACEUTICAL INC., priority 2015, published 2018).

For this experiment, the system named is GM01896 cells. Description: MPS II cellular assay. Type of experiment: cell-based. Particulars: Homo sapiens, Fibroblast; dermal fibroblasts from an individual with MPS II (GM01896); heparan sulfate disaccharide I2a4, I2a6, I2S0 and/or I2S6 detected by LC-MS. On the procedure:
Dermal fibroblasts from humans with an MPS disorder and from healthy donors were grown. Cells were expanded and kept in culture for analysis.
Human foreskin fibroblasts are obtained from the American Type Culture Collection (CRL-1634). […] Sulfamidase activity in cell extracts is measured with 4-methylumbelliferyl-α-D-N-sulfoglucosaminide according the vendors instructions substituting Tris-acetate buffer (pH 6.5; Moscerdam). […]
Cell monolayers are washed with phosphate buffered saline and detached by treatment with GIBCO trypsin-EDTA solution (Invitrogen). […] The amount of protein is determined by bicinchoninic acid (BCA assay, Thermo Scientific). […]
Enzymatically depolymerized GAG preparations are differentially mass labeled by reductive amination with [^12C6]aniline. […] Samples are then analyzed by LC-MS using an LTQ Orbitrap Discovery electrospray ionization mass spectrometer (Thermo Scientific) equipped with quaternary HPLC pump (Finnigan Surveyor MS pump) and a reverse-phase capillary column.
For MPS II, GM01896 cells were treated with a compound described herein and the heparan sulfate disaccharide detected was [^12C6]aniline-tagged I2a4, I2a6, I2S0 and/or I2S6. […] Cell viability was monitored using alamar blue or ATP quantification. IC50's were calculated using curve fitting within the ChemInnovation CBIS database system.

What is called IC50 is the concentration needed to halve the response being measured. Consider `Cc1cccc(/C=N/Nc2cc(N3CCOCC3)nc(OCCc3ccccn3)n2)c1` [Compound 11, (E)-4-(6-(2-(3-methylbenzylidene)hydrazinyl)-2-(2-(pyridin-2-yl)ethoxy)pyrimidin-4-yl)morpholine], for which the concentration for half-maximal inhibition (IC50) turned out to be 170 nM.
